Experimental data taken from patent US12134620B2 (ARAXES PHARMA LLC, priority 2018, dated 2024).
Further: time not given here.

What follows are compounds tested against T1, KRAS G12C 1-169, his-tagged protein, GDP-loaded (Homo sapiens, UniProt P01116, G12C) (assay: Biochemical assay: covalent modification of KRAS G12C, analysed by mass spectrometry (RapidFire/TOF or Q-Exactive)). Conditions: Modification activity, modification percentage from MS peak intensities.
T1 construct: KRAS G12C 1-169, his-tagged protein, GDP-loaded; His tag
Format: binding
Outline: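 GDP-loaded His-tagged KRAS G12C 1-169 (2 μM or 0.5 μM in 20 mM Hepes, 150 mM NaCl, 1 mM MgCl2) reacted with compound at 32 μM or 8 μM final (2% DMSO) for a set time, then quenched with formic acid. Percent covalent modification from deconvoluted intact-protein MS peak intensities (RapidFire/TOF or LC-Q Exactive).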
`C=CC(=O)N1CC2(CCN(c3ncnc(-c4c(C)ccc5[nH]ncc45)c3CC)C2)C1` [Compound I-262, 1-(6-(5-ethyl-6-(5-methyl-1H-indazol-4-yl)pyrimidin-4-yl)-2,6-diazaspiro[3.4]octan-2-yl)prop-2-en-1-one] was tested, and the Binding % was “+ (+ indicates binding activity greater than 0% and up to 50%)”.
In the case of `C=CC(=O)N1CC2(CCN(c3nc(OC4CCOCC4)nc(-c4c(C)ccc5[nH]ncc45)c3C#N)C2)C1` [Compound I-25, 4-(2-acryloyl-2,6-diazaspiro[3.4]octan-6-yl)-6-(5-methyl-1H-indazol-4-yl)-2-((tetrahydro-2H-pyran-4-yl)oxy)pyrimidine-5-carbonitrile], the Binding % is reported as “+ (+ indicates binding activity greater than 0% and up to 50%)”.
For `C=CC(=O)N1CC2(CCN(c3ncnc(N4CCC[C@H]4C(N)=O)c3C#N)C2)C1` [Compound I-248, (S)-1-(6-(2-acryloyl-2,6-diazaspiro[3.4]octan-6-yl)-5-cyanopyrimidin-4-yl)pyrrolidine-2-carboxamide], the Binding % was “+ (+ indicates binding activity greater than 0% and up to 50%)”.
With `C=CC(=O)N1CC2(CCN(c3nc(OCCN4CCC(F)(F)C4)nc(-c4c(C)ccc5[nH]ncc45)c3C#N)C2)C1` [Compound I-21, 4-(2-acryloyl-2,6-diazaspiro[3.4]octan-6-yl)-2-(2-(3,3-difluoropyrrolidin-1-yl)ethoxy)-6-(5-methyl-1H-indazol-4-yl)pyrimidine-5-carbonitrile] the Binding % was “++ (++ indicates binding activity from 50 to 85%)”.
For `C=CC(=O)N1CC2(CCN(c3nc(OCc4cc(C(F)(F)F)ccn4)nc(-c4c(C)ccc5cnn(C)c45)c3C#N)C2)C1` [Compound I-166, 4-(2-acryloyl-2,6-diazaspiro[3.4]octan-6-yl)-6-(1,6-dimethyl-1H-indazol-7-yl)-2-((4-(trifluoromethyl)pyri-din-2-yl)methoxy)pyrimidine-5-carbonitrile], the Binding % was “++ (++ indicates binding activity from 50 to 85%)”.
In the case of `CC#CC(=O)N1CC2(CCN(c3cncc(-c4c(O)cccc4F)c3C#N)C2)C1` [Compound I-270, 3-(2-(but-2-ynoyl)-2,6-diazaspiro[3.4]octan-6-yl)-5-(2-fluoro-6-hydroxyphenyl)isoni-cotinonitrile], the Binding % is reported as “+ (+ indicates binding activity greater than 0% and up to 50%)”.
With `CC#CC(=O)N1CC2(CCN(c3nc(OCc4ccccn4)nc(-c4c(C)ccc5[nH]ncc45)c3C#N)C2)C1` [Compound I-99, 4-(2-(but-2-ynoyl)-2,6-diazaspiro[3.4]octan-6-yl)-6-(5-methyl-1H-indazol-4-yl)-2-(pyridin-2-ylmethoxy)pyrimidine-5-carbonitrile] the Binding % was “+ (+ indicates binding activity greater than 0% and up to 50%)”.
`C=CC(=O)N1CC2(CCN(c3nc(OCc4cc(C(F)(F)F)ccn4)nc(-c4c(C)ccc5[nH]ncc45)c3C#N)C2)C1` [Compound I-174, 4-(2-acryloyl-2,6-diazaspiro[3.4]octan-6-yl)-6-(5-methyl-1H-indazol-4-yl)-2-((4-(trifluoromethyl)pyri-din-2-yl)methoxy)pyrimidine-5-carbonitrile] was tested, and the Binding % was “++ (++ indicates binding activity from 50 to 85%)”.
For `C=CC(=O)N1CC2(CCN(c3cncc(-c4c(C)ccc5[nH]ncc45)c3C#N)C2)C1` [Compound I-256, 3-(2-acryloyl-2,6-diazaspiro[3.4]octan-6-yl)-5-(5-methyl-1H-indazol-4-yl)isonicotinonitrile], the Binding % was “+++ (+++ indicates binding activity greater than 85%)”.
In the case of `C=CC(=O)N1CC2(CCN(c3nc(N4CCOCC4)nc(N4CCCc5ccccc54)c3C#N)C2)C1` [Compound I-88, 4-(2-acryloyl-2,6-diazaspiro[3.4]octan-6-yl)-6-(3,4-dihydroquinolin-1(2H)-yl)-2-morpholinopyrimidine-5-carbonitrile], the Binding % is reported as “+ (+ indicates binding activity greater than 0% and up to 50%)”.
For `C=CC(=O)N1CC2(CCN(c3ncnc(Oc4cccc(C(N)=O)c4)c3C#N)C2)C1` [Compound I-255, 3-((6-(2-acryloyl-2,6-diazaspiro[3.4]octan-6-yl)-5-cyanopyrimidin-4-yl)oxy)benzamide], the Binding % was “+ (+ indicates binding activity greater than 0% and up to 50%)”.
`C=CC(=O)N1CC2(CCN(c3ncnc(-c4c(C)ccc5[nH]ncc45)c3C#N)C2)C1` [Compound I-231, 4-(2-acryloyl-2,6-diazaspiro[3.4]octan-6-yl)-6-(5-methyl-1H-indazol-4-yl)pyrimidine-5-carbonitrile] was tested, and the Binding % was “+ (+ indicates binding activity greater than 0% and up to 50%)”.
With `C=CC(=O)N1CC2(CCN(c3nc(-c4c(C)ccc5[nH]ncc45)cc(N4CCOCC4)n3)C2)C1` [Compound I-144, 1-(6-(4-(5-methyl-1H-indazol-4-yl)-6-morpholinopyrimidin-2-yl)-2,6-diazaspiro[3.4]octan-2-yl)prop-2-en-1-one] the Binding % was “+ (+ indicates binding activity greater than 0% and up to 50%)”.
`C=CC(=O)N1CC2(CCN(c3nc(N4CC(N(C)C)C4)cc(-c4c(C)ccc5[nH]ncc45)c3C#N)C2)C1` [Compound I-187, 2-(2-acryloyl-2,6-diazaspiro[3.4]octan-6-yl)-6-(3-(dimethylamino)azeti-din-1-yl)-4-(5-methyl-1H-indazol-4-yl)nicotinonitrile] was tested, and the Binding % was “+ (+ indicates binding activity greater than 0% and up to 50%)”.
In the case of `C=CC(=O)N1CC2(CCN(c3nc(C#N)nc(-c4c(C)ccc5[nH]ncc45)c3C#N)C2)C1` [Compound I-10, 4-(2-acryloyl-2,6-diazaspiro[3.4]octan-6-yl)-6-(5-methyl-1H-indazol-4-yl)pyrimidine-2,5-dicarbonitrile], the Binding % is reported as “++ (++ indicates binding activity from 50 to 85%)”.
`C=CC(=O)N1CC2(CCN(c3nc(N4CCOCC4)nc(-c4cccc5[nH]ncc45)c3C#N)C2)C1` [Compound I-95, 4-(2-acryloyl-2,6-diazaspiro[3.4]octan-6-yl)-6-(1H-indazol-4-yl)-2-morpholinopyrimidine-5-carbonitrile] was tested, and the Binding % was “+ (+ indicates binding activity greater than 0% and up to 50%)”.
In the case of `C=CC(=O)N1CC2(CCN(c3nc(N4CC5CCC(C4)N5C)nc(-c4c(C)ccc5[nH]ncc45)c3C#N)C2)C1` [Compound I-47, 4-(2-acryloyl-2,6-diazaspiro[3.4]octan-6-yl)-6-(5-methyl-1H-indazol-4-yl)-2-(8-methyl-3,8-diazabicyclo[3.2.1]oc-tan-3-yl)pyrimidine-5-carbonitrile], the Binding % is reported as “+++ (+++ indicates binding activity greater than 85%)”.
With `C=CC(=O)N1CC2(CCN(c3nc(N4CCCC(O)C4)nc(-c4c(C)ccc5[nH]ncc45)c3C#N)C2)C1` (centres unmarked) [Compound I-122, 4-(2-acryloyl-2,6-diazaspiro[3.4]octan-6-yl)-2-(3-hydroxypiperidin-1-yl)-6-(5-methyl-1H-indazol-4-yl)pyrimidine-5-carbonitrile] the Binding % was “++ (++ indicates binding activity from 50 to 85%)”.
For `C=CC(=O)N1CC2(CCN(c3nc(OCc4ccc(C(F)(F)F)cc4)nc(-c4c(C)ccc5cnn(C)c45)c3C#N)C2)C1` [Compound I-157, 4-(2-acryloyl-2,6-diazaspiro[3.4]octan-6-yl)-6-(1,6-dimethyl-1H-indazol-7-yl)-2-((4-(trifluoromethyl)ben-zyl)oxy)pyrimidine-5-carbonitrile], the Binding % was “++ (++ indicates binding activity from 50 to 85%)”.
In the case of `C=CC(=O)N1CC2(CCN(c3nc(OCc4ccccn4)nc(-c4c(C)ccc5cnn(C6CC6)c45)c3C#N)C2)C1` [Compound I-106, 4-(2-acryloyl-2,6-diazaspiro[3.4]octan-6-yl)-6-(1-cyclopropyl-6-methyl-1H-indazol-7-yl)-2-(pyridin-2-ylmethoxy)pyrimidine-5-carbontrile], the Binding % is reported as “+ (+ indicates binding activity greater than 0% and up to 50%)”.
With `C=CC(=O)N1CC2(CCN(c3nc(N4CCOCC4)nc(-c4c(C)ccc5[nH]ncc45)c3C#N)C2)C1` [Compound I-76, 4-(2-acryloyl-2,6-diazaspiro[3.4]octan-6-yl)-6-(5-methyl-1H-indazol-4-yl)-2-morpholinopyrimidine-5-carbonitrile] the Binding % was “++ (++ indicates binding activity from 50 to 85%)”.
In the case of `C=CC(=O)N1CC2(CCN(c3nc(OCCc4ccccn4)nc(-c4c(C)ccc5[nH]ncc45)c3C#N)CC2)C1` [Compound I-75, 4-(2-acryloyl-2,7-diazaspiro[3.5]nonan-7-yl)-6-(5-methyl-1H-indazol-4-yl)-2-(2-(pyridin-2-yl)ethoxy)pyrimidine-5-carbonitrile], the Binding % is reported as “++ (++ indicates binding activity from 50 to 85%)”.
`C=CC(=O)N1CC2(CCN(c3nc(OCc4ccccc4)nc(-c4c(C)ccc5cnn(C)c45)c3C#N)C2)C1` [Compound I-163, 4-(2-acryloyl-2,6-diazaspiro[3.4]octan-6-yl)-2-(benzyloxy)-6-(1,6-dimethyl-1H-indazol-7-yl)pyrimidine-5-carbonitrile] was tested, and the Binding % was “++ (++ indicates binding activity from 50 to 85%)”.
`C=CC(=O)N1CC2(CCN(c3nc(OCc4ccc(C(F)(F)F)cn4)nc(-c4c(C)ccc5cnn(C)c45)c3C#N)C2)C1` [Compound I-155, 4-(2-acryloyl-2,6-diazaspiro[3.4]octan-6-yl)-6-(1,6-dimethyl-1H-indazol-7-yl)-2-((5-(trifluoromethyl)pyri-din-2-yl)methoxy)pyrimidine-5-carbonitrile] was tested, and the Binding % was “++ (++ indicates binding activity from 50 to 85%)”.
With `C=CC(=O)N1CC2(CCN(c3ncnc(-c4cc(O)cc5ccccc45)c3C#N)C2)C1` [Compound I-233, 4-(2-acryloyl-2,6-diazaspiro[3.4]octan-6-yl)-6-(3-hydroxynaphthalen-1-yl)pyrimidine-5-carbonitrile] the Binding % was “+ (+ indicates binding activity greater than 0% and up to 50%)”.
With `C=CC(=O)N1CC2(CCN(c3c(C#N)c(-c4c(C)ccc5[nH]ncc45)[nH]c(=O)[n+]3Cc3ccccc3)C2)C1` [Compound I-179, 6-(2-acryloyl-2,6-diazaspiro[3.4]octan-6-yl)-1-benzyl-4-(5-methyl-1H-indazol-4-yl)-2-oxo-2H-1l4,3l2-pyrimidine-5-carbonitrile] the Binding % was “+ (+ indicates binding activity greater than 0% and up to 50%)”.
